As a reminder, the pKd is −log10 of the Kd, conventionally taken in molar units. A lower pKd goes with a high Kd. The pIC50 is the negative decadic logarithm of the IC50, by convention in mol/L.

This note sets out measurements from patent publication US20250074891A1 (Anaxis Pharma Pty Ltd., priority 2021, published 2025).

pIC50, pKd: −log10 of the molar value.

The target in one experiment is MLKL (full length) (Homo sapiens (Human), UniProt Q8NB16). In words: KINOMEscan binding assay, MLKL (full length). To be noted: Table 36. Here is the method: Kinase assays. For most assays, kinase-tagged T7 phage strains were grown in parallel in 24-well blocks in an E. coli host derived from the BL21 strain. E. coli were grown to log-phase and infected with T7 phage from a frozen stock (multiplicity of infection=0.4) and incubated with shaking at 32° C. until lysis (90-150 minutes).
The Hill Slope was set to −1.

Experiment [1] relates to U937 human histiocytic leukemia cell line. Kind of experiment: Cellular assay: inhibition of TSQ induced necroptosis (CellTitre-Glo). To be noted: Homo sapiens, U-937; U937 cells, TSQ cocktail, 48 hours, Table 38; read-out: Inhibition of TSQ-induced necroptosis (IC50 cell-based assay). Here is the method:
[…] ASSAY: Screening compounds for inhibition of TSQ induced necroptosis, 384 well plate format.
Cell Line ID: U937 human histiocytic leukemia cell line.
Cell Concentration (cells/well): Final cell density is 20,000 cells per well.
Cell growth medium: HT-RPMI medium+7.4% Fetal Bovine Serum (FBS). Cells are cultured in Corning 150 cm^z tissue culture flasks with vented caps at 37° C./5% CO2.
Incubation: Plates were incubated at 37° C./5% CO2 in a humidified incubator for 48 hours following addition of compounds and death stimuli (TSQ cocktail).
Compound concentration: 36 μM starting concentration, 1:3 dilution, 10 point
DMSO final concentration (% v/v): 0.3%.
Compounds in TSQ cocktail (T: TNF; S: Smac mimetic; Q: Q-VD-OPh) and their final concentrations: • hTNF-Fc (100 ng/ml)—produced by standard procedures as shown in Bossen et al., J Biol Chem, 2006, 281(20), 13964-13971. • Compound A (500 nM)—Smac mimetic, Tetralogic and SYNthesis med chem • Q-VD-OPh (10 μM)—MP Biomedicals
The cellular assay was carried out according to the following steps: • 1. Each well was prepared by sequential addition of: • a. DMSO (control; columns 1-2 and 23-24) or compound in DMSO—addition was performed using acoustic transfer of nl volumes of stock compound to give final test concentrations of 36, 12, 4, 1.3, 0.44, 0.148, 0.049, 0.016, 0.005 and 0.002 μM. All wells were backfilled with DMSO to a final total volume in the well of 100 nl. • b. Following compound/DMSO addition in step (a), 40 μL of cell suspension (5×10^5 cells/mL) was added to provide a final cell concentration of 20,000 cells per well, and • c. Following cell addition in step (b), 10 μL of 5×TSQ cocktail (except to positive controls; […]) was added to each well. • 2. After 48 hours, plate was removed from the 37° C. incubator and equilibrated to room temperature for 45 minutes. • 3. 15 μL of room temperature CellTitre-Glo2™ (Promega™) was added to each well. • 4. Shook plates for 2 minutes (˜600 rpm) and incubated at room temperature for 15 minutes to allow signal to stabilise. • 5. Read luminescence readout on a plate reader.
Percent viability was calculated for each compound according to equation (2):
[formula] • wherein • RawData is the readout of any cell containing a compound of the invention • TA is the total activity provided by the luminescence readout from DMSO only wells (columns 2 and 24)=100% viability • NSA is the non-specific activity provided by DMSO+TSQ wells (columns 1 and 23)=0% viability
Curve fitting: 10-point titration curves are fitted with the 4-parameter logistic nonlinear regression model and the IC50 reported is the inflection point of the curve.
Analysis: Data was loaded into Dotmatics™ and visualised using the Tibco® Spotfire™ software. 10 points titration curves were fitted with the 4-parameter logistic nonlinear regression model and the IC50 reported reflect the inflection point of the curve for curve fitting.
Assay involving the TSQ cocktail (T: TNF; S: Smac mimetic; Q: Q-VD-OPh): TSQ treatment ensures that cells specifically undergo necroptotic cell death. TNF activates the TNF receptor, Smac mimetic directs the signal away from proinflammatory signaling and toward the RIP1/RIP3-mediated cell death pathways, and Q-VD-OPh ensures that the apoptotic response is blocked leaving only the programmed necrosis response. The compounds' activity (solution in DMSO) tested in this TSQ-induced assay was evaluated by determining the number of viable cells in culture by measuring the amount of ATP present as measured by CelltiterGlo.

Another experiment deals with U937 cells. In words: Counter screen: cell viability without TSQ cocktail (off-target effect). The arrangement: species or system human. To be noted: Homo sapiens, U-937, Table 38, read-out: Off-target effect (IC50 cell-based assay). Here is the method: Counter screen: In parallel, all compounds were tested for their ability to affect cell viability. The same U937 cells were treated with compound in DMSO without the TSQ cocktail. This counter screen enabled evaluation of off-target effects. In this case, cell viability was measured by CelltiterGlo.
On the technique in general: A counterscreen serves to expose hits that act by an unwanted route or on another target.

MLKL (full length), sequence (Q8NB16 whole entry): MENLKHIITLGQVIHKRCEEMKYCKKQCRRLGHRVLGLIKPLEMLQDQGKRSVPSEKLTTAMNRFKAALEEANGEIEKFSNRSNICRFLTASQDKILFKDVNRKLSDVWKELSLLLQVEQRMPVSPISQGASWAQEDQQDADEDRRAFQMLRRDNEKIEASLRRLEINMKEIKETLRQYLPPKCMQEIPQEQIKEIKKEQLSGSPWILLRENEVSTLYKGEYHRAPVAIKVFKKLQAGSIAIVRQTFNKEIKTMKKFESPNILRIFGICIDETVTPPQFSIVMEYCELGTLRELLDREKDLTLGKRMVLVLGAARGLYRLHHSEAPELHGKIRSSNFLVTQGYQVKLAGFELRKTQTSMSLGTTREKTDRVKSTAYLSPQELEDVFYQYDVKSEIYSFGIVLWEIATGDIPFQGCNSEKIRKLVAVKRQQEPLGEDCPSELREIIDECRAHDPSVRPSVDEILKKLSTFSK

Turning to `CCS(=O)(=O)Nc1ccc(-c2n[nH]c(Nc3ccnc(OCCCCC(=O)N[C@H](C(=O)N4C[C@@H](O)C[C@H]4C(=O)NCc4ccc(-c5scnc5C)cc4)C(C)(C)C)c3)c2C(N)=O)cc1` [Compound 1014, 3-(4-ethanesulfonamidophenyl)-5-{[2-(4-{[(2S)-1-[(2S,4S)-4-hydroxy-2-({[4-(4-methyl-1,3-thiazol-5-yl)phenyl]methyl}carbamoyl)pyrrolidin-1-yl]-3,3-dimethyl-1-oxobutan-2-yl]carbamoyl}butoxy)pyridin-4-yl]amino}-1H-pyrazole-4-carboxamide], the negative logarithm of the Kd (pKd) on MLKL (full length) is over 8.00. The pIC50 (in experiment [1]; with U937 cells) was under 5.00 throughout.

Molecule `Cc1ncsc1-c1ccc(CNC(=O)[C@@H]2C[C@@H](O)CN2C(=O)[C@@H](NC(=O)CCCCOc2cc(Nc3[nH]nc(-c4ccc(NS(=O)(=O)C(F)F)cc4)c3C(N)=O)ccn2)C(C)(C)C)cc1` [Compound 1017, 3-[4-(difluoromethanesulfonamido)phenyl]-5-{[2-(4-{[(2S)-1-[(2S,4R)-4-hydroxy-2-({[4-(4-methyl-1,3-thiazol-5-yl)phenyl]methyl}carbamoyl)pyrrolidin-1-yl]-3,3-dimethyl-1-oxobutan-2-yl]carbamoyl}butoxy)pyridin-4-yl]amino}-1H-pyrazole-4-carboxamide] had a pKd on MLKL (full length) of over 8.00. In addition, the values for the pIC50 (in experiment [1]; with U937 cells) were 5.00 to 6.00 and under 5.00, respectively.

At MLKL (full length), `CCS(=O)(=O)Nc1ccc(-c2n[nH]c(Nc3ccnc(OCCCCCCCCCCCCCC(=O)N[C@H](C(=O)N4C[C@H](O)C[C@H]4C(=O)NCc4ccc(-c5scnc5C)cc4)C(C)(C)C)c3)c2C(N)=O)cc1` [Compound 1018, 3-(4-ethanesulfonamidophenyl)-5-({2-[(13-{[(2S)-1-[(2S,4R)-4-hydroxy-2-({[4-(4-methyl-1,3-thiazol-5-yl)phenyl]methyl}carbamoyl)pyrrolidin-1-yl]-3,3-dimethyl-1-oxobutan-2-yl]carbamoyl}tridecyl)oxy]pyridin-4-yl}amino)-1H-pyrazole-4-carboxamide] had a negative-log Kd (pKd) of 6.00 to 8.00. In addition, the negative logarithm of the IC50 (pIC50) (in experiment [1]; in the experiment on U937 cells) was under 5.00 throughout.

On to `CCS(=O)(=O)Nc1ccc(-c2n[nH]c(Nc3cnc(OCCCCC(=O)N[C@H](C(=O)N4C[C@H](O)C[C@H]4C(=O)NCc4ccc(-c5scnc5C)cc4)C(C)(C)C)cn3)c2C(N)=O)cc1` [Compound 1022, 3-(4-ethanesulfonamidophenyl)-5-{[5-(4-{[(2S)-1-[(2S,4R)-4-hydroxy-2-({[4-(4-methyl-1,3-thiazol-5-yl)phenyl]methyl}carbamoyl)pyrrolidin-1-yl]-3,3-dimethyl-1-oxobutan-2-yl]carbamoyl}butoxy)pyrazin-2-yl]amino}-1H-pyrazole-4-carboxamide], for which the pKd on MLKL (full length) is over 8.00. Moreover, the pIC50 was over 6.00 in experiment [1] and under 5.00 in the experiment on U937 cells.

As for `Cc1ncsc1-c1ccc(CNC(=O)[C@@H]2C[C@@H](O)CN2C(=O)[C@@H](NC(=O)CCn2ccc(Nc3[nH]nc(-c4ccc(NS(=O)(=O)C(F)F)c(O[C@@H](C)c5ccc(F)cc5)c4)c3C(N)=O)n2)C(C)(C)C)cc1` [Compound 1032, 3-[4-(difluoromethanesulfonamido)-3-[(1S)-1-(4-fluorophenyl)ethoxy]phenyl]-5-{[1-(2-{[(2S)-1-[(2S,4R)-4-hydroxy-2-({[4-(4-methyl-1,3-thiazol-5-yl)phenyl]methyl}carbamoyl)pyrrolidin-1-yl]-3,3-dimethyl-1-oxobutan-2-yl]carbamoyl}ethyl)-1H-pyrazol-3-yl]amino}-1H-pyrazole-4-carboxamide], the pKd at MLKL (full length) was over 8.00. The pIC50 (in experiment [1]; in the experiment on U937 cells) was under 5.00 in each case.
